The values that follow come from ChEMBL document CHEMBL3120142 (J Med Chem, 2014).

Activity calls are given as the source filed them. No cut-off for these calls is given here.

For the test, the system named is Influenza A virus. In kind it is functional, organism-based. Particulars: A/Berlin/55/08(H1N1), MDCK.

For the molecule `CCC(CC)O[C@@H]1C=C(C(=O)O)C[C@H](N)[C@H]1NC(C)=O` [OSELTAMIVIR CARBOXYLATE], the outcome was Active.

For the molecule `CC(=O)N[C@H]1[C@H]([C@H](O)[C@H](O)CO)OC(C(=O)O)=C[C@@H]1NC(=N)N` [ZANAMIVIR], the result was Active.
